The test system of assay [1] is PKMYT1 (CDK1 pThr14) in FUOV1 cells. The assay can be described thus: PKMYT1 cell-based activity assay, CDK1 pThr14 AlphaLISA in FUOV1 cells. Particulars: 2 h incubation, read-out: FUOV-1 CDK1 pThr14 IC50. The essentials:
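FUOV1 cells were treated with PKMYT1 inhibitor for 2 h at 37 °C, then lysed. CDK1 pThr14 was measured by AlphaLISA, pairing an anti-pThr14 antibody with an anti-total CDK1 antibody (5 nM each). Signal read at 680/615 nm and used to derive IC50.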
On the technique in general: In Alpha technology, singlet oxygen from a donor bead excites a nearby acceptor bead.

Assay [2] deals with recombinant human Myt1 (full length PKMYT1) (Homo sapiens (Human), UniProt Q99640). The experiment in a line: Recombinant human Myt1 kinase assay (ADP-Glo). Format: biochemical. The settings on record: 10 μM ATP. In a few lines: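 Full-length insect-cell-expressed human Myt1 (18 nM final) was preincubated with compound (0.5% DMSO) for 15 min at 22 °C. The reaction ran with 10 μM ATP for 60 min at 30 °C in HEPES buffer with Mg2+/Mn2+ and DTT. ADP formed was read by ADP-Glo luminescence, giving IC50 and % max inhibition.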
recombinant human Myt1 (full length PKMYT1), sequence (Q99640 whole entry): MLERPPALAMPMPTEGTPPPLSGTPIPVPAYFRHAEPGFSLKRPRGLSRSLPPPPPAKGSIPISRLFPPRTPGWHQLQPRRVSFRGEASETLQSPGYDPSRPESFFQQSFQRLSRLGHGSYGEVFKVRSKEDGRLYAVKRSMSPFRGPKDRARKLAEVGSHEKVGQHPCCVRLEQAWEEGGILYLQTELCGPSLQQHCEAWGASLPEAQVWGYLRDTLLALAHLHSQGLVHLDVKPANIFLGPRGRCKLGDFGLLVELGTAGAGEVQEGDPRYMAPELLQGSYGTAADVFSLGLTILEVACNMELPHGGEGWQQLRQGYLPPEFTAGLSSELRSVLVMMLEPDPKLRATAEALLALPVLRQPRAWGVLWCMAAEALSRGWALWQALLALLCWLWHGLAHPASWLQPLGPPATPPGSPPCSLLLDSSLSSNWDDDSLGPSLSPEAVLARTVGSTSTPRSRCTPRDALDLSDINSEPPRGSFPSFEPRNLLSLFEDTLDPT

Structures are written as SMILES. Read-outs that look alike come from different tables or passages of the source.

`Cc1ccc2[nH]ncc2c1-c1cc(-c2cccc(O[C@H]3CCOC3)n2)nc(C(N)=O)c1N` (atropisomer, axis not shown) [Compound 226]: the IC50 in assay [1] (2 h) was found to be 367 nM; in assay [2], 4 nM.
In the same order, the values of `Cc1ccc2[nH]ncc2c1-c1cc(-c2cccc(O[C@@H]3CCOC3)n2)nc(C(N)=O)c1N` (atropisomer, axis not shown) [Compound 227, (R)-5-amino-4-(5-methyl-1H-indazol-4-yl)-6′-(((R)-tetrahydrofuran-3-yl)oxy)-[2,2′-bipyridine]-6-carboxamide] are 198 nM and 2 nM.
For `Cc1ccc2[nH]ncc2c1-c1cc(-c2cccc(OCc3cccnn3)n2)nc(C(N)=O)c1N` (atropisomer, axis not shown) [Compound 260], the half-maximal inhibitory concentration (IC50) in assay [1] turned out to be 167 nM; in assay [2] it was 4 nM.
In the same order, the values of `Cc1ccc2[nH]ncc2c1-c1cc(-c2cccc(OCc3ncco3)n2)nc(C(N)=O)c1N` (atropisomer, axis not shown) [Compound 273] are 4560 nM and 716 nM.
Consider `CO[C@H](COc1nccc(-c2cc(-c3c(C)ccc4[nH]ncc34)c(N)c(C(N)=O)n2)n1)c1ccccc1` (atropisomer, axis not shown) [Compound 309], for which the figures for the IC50 in assay [1] (2 h) and in assay [2] were 22 nM and 5 nM, respectively.
Turning to `CC[C@H](COc1nccc(-c2cc(-c3c(C)ccc4[nH]ncc34)c(N)c(C(N)=O)n2)n1)OC` (atropisomer, axis not shown) [Compound 333], the IC50 in assay [1] (2 h) worked out at 21 nM; in assay [2], 3 nM.
As for `CC[C@@H](COc1nccc(-c2cc(-c3c(C)ccc4[nH]ncc34)c(N)c(C(N)=O)n2)n1)OC` (atropisomer, axis not shown) [Compound 334], the values for the IC50 in assay [1] (2 h) and in assay [2] were 1180 nM and 400 nM, respectively.
Consider `Cc1ccc2[nH]ncc2c1-c1cc(-c2cccc(OC[C@H](N)c3ccccc3)n2)nc(C(N)=O)c1N` (atropisomer, axis not shown) [Compound 338], for which the results for the half-inhibitory concentration (IC50) in assay [1] and in assay [2] were 284 nM and 165 nM, respectively.
For the compound `Cc1ccc2[nH]ncc2c1-c1cc(-c2ccnc(N[C@H](CO)c3ccccc3)n2)nc(C(N)=O)c1N` (atropisomer, axis not shown) [Compound 371], the IC50 in assay [1] (2 h) was determined as 2420 nM; in assay [2] it was 466 nM.
Turning to `Cc1ccc(O)cc1-c1nc(-c2ccccc2)nc(C(N)=O)c1N` [Compound 2, 5-amino-6-(5-hydroxy-2-methylphenyl)-2-phenylpyrimidine-4-carboxamide], the values for the IC50 in assay [1] (2 h) and in assay [2] were 517 nM and 11 nM, respectively.
In the same order, the values of `Cc1ccc(O)cc1-c1nc(-c2nccs2)nc(C(N)=O)c1N` [Compound 3, 5-amino-6-(5-hydroxy-2-methylphenyl)-2-(thiazol-2-yl)pyrimidine-4-carboxamide] are 560 nM and 21 nM.
Regarding `Cc1ccc(O)cc1-c1nc(-c2ccnc(N)c2)nc(C(N)=O)c1N` [Compound 4], the half-maximal inhibitory concentration (IC50) is 943 nM in assay [1] (2 h) and 10 nM in assay [2].
In the same order, the values of `Cc1ccc(O)cc1-c1nc(-c2ccc(N3CCN(CCO)CC3)cc2)nc(C(N)=O)c1N` [Compound 6] are 1010 nM and 24 nM.
In the same order, the values of `Cc1ccc(O)cc1-c1nc(-c2ccc(C(F)(F)F)cc2)nc(C(N)=O)c1N` [Compound 7] are 737 nM and 31 nM.
In the same order, the values of `Cc1ccc(O)c(C)c1-c1cc(-c2nccs2)nc(C(N)=O)c1N` [Compound 13, 3-amino-4-(3-hydroxy-2,6-dimethylphenyl)-6-(thiazol-2-yl)picolinamide] are 64 nM and < 3.5 nM.
As for `Cc1ccc(O)c(C)c1-c1cc(-c2ccnc(N)c2)nc(C(N)=O)c1N` [Compound 14], the concentration for half-maximal inhibition (IC50) in assay [1] was found to be 132 nM; in assay [2], 4 nM.
For `Cc1ccc(O)c(C)c1-c1cc(-c2ccc(C(F)(F)F)cc2)nc(C(N)=O)c1N` [Compound 15], the IC50 in assay [1] (2 h) worked out at 2520 nM; in assay [2] it was 20 nM.
`CO[C@@H](COc1cccc(-c2nc(C(N)=O)c(N)c(-c3c(C)ccc4[nH]ncc34)n2)c1)c1ccccc1` [Compound 354]: in assay [2], the IC50 worked out at 293 nM.
On the same count and under the same terms, to `Cc1ccc2[nH]ncc2c1-c1cc(-c2cccc(OCC(N)C(F)(F)F)n2)nc(C(N)=O)c1N` (stereo not drawn) [Compound 355] belongs 7 nM.
Still for that read-out and setting: to `Cc1ccc2[nH]ncc2c1-c1cc(-c2cccc(OC[C@H]3CCCO3)n2)nc(C(N)=O)c1N` [Compound 356] belongs 9 nM.
Still for that read-out and setting: the result for `Cc1ccc2[nH]ncc2c1-c1cc(-c2ccnc(N3CCC(O)CC3)n2)nc(C(N)=O)c1N` [Compound 359] reads 4 nM; that for `CCC(COc1cccc(-c2cc(-c3c(C)ccc4[nH]ncc34)c(N)c(C(N)=O)n2)c1)OC` (stereo not drawn) [Compound 360], 330 nM; that for `CCC(C)COc1cccc(-c2cc(-c3c(C)ccc4[nH]ncc34)c(N)c(C(N)=O)n2)n1` (stereo not drawn) [Compound 361], 35 nM.
`Cc1ccc2[nH]ncc2c1-c1nc(-c2cccc3cc[nH]c23)nc(C(N)=O)c1N` [Compound 366]: the IC50 in assay [2] worked out at 28 nM.
Still for that read-out and setting: to `Cc1ccc2[nH]ncc2c1-c1cc(-c2ccnc(N3CCCC(O)C3)n2)nc(C(N)=O)c1N` (stereo not drawn) [Compound 367] belongs 9 nM; to `Cc1ccc2[nH]ncc2c1-c1cc(-c2ccnc(N[C@H]3CC[C@H](O)CC3)n2)nc(C(N)=O)c1N` [Compound 369], 4 nM.
On the same count and under the same terms, to `Cc1ccc2[nH]ncc2c1-c1cc(-c2ccnc(N3CCCC3CO)n2)nc(C(N)=O)c1N` (stereo not drawn) [Compound 373] belongs 20 nM; to `Cc1ccc2[nH]ncc2c1-c1cc(-c2cccc(OC[C@H]3CCCN3)n2)nc(C(N)=O)c1N` [Compound 374], 14 nM; to `CSC(C)COc1cccc(-c2cc(-c3c(C)ccc4[nH]ncc34)c(N)c(C(N)=O)n2)n1` (stereo not drawn) [Compound 375], 14 nM.
On the same count and under the same terms, to `Cc1ccc2[nH]ncc2c1-c1nc(-c2cccc3nc[nH]c23)nc(C(N)=O)c1N` [Compound 378] belongs 18 nM; to `Cc1ccc2[nH]ncc2c1-c1nc(-c2cccc3ccsc23)nc(C(N)=O)c1N` [Compound 379], 14 nM; to `Cc1ccc2[nH]ncc2c1-c1nc(-c2cccc3c2NCC3)nc(C(N)=O)c1N` [Compound 386], 29 nM.
For the compound `Cc1ccc2[nH]ncc2c1-c1nc(-c2cccc3nnsc23)nc(C(N)=O)c1N` [Compound 390], the IC50 in assay [2] was 5 nM.
Same read-out and setting: to `Cc1ccc2[nH]ncc2c1-c1cc(-c2ccnc(N3CCCCC3CCO)n2)nc(C(N)=O)c1N` (stereo not drawn) [Compound 404] belongs 24 nM; to `Cc1ccc2[nH]ncc2c1-c1nc(-c2ccccc2NC(=O)C(C)C)nc(C(N)=O)c1N` [Compound 407], 4 nM.
On the same count and under the same terms, the result for `Cc1ccc2[nH]ncc2c1-c1nc(-c2cccc(Cl)c2N)nc(C(N)=O)c1N` [Compound 444] reads 43 nM; that for `Cc1ccc2[nH]ncc2c1-c1nc(-c2cc(F)c(F)cc2NC2CN(C(=O)OC(C)(C)C)C2)nc(C(N)=O)c1N` [Compound 479], > 2000 nM.
The same measure, in the same setting: to `CCC(COc1cccc(-c2cc(-c3c(C)ccc4[nH]ncc34)cc(C(N)=O)n2)n1)OC` (stereo not drawn) [Compound 498] belongs 93 nM; to `COCC(=O)c1ccccc1-c1nc(C(N)=O)c(N)c(-c2c(C)ccc3[nH]ncc23)n1` [Compound 793], 266 nM; to `CCS(=O)(=O)c1ccccc1-c1nc(C(N)=O)c(N)c(-c2c(C)ccc3[nH]ncc23)n1` [Compound 800], 1010 nM.

For orientation: IC50 means the concentration needed to halve the response being measured.

The values are drawn from patent US20250304537A1 (Repare Therapeutics Inc., priority 2022, published 2025).
